# Patent publication US20020049157A1, “Use of proteasome inhibitors for treating cancer, inflammation, autoimmune disease, graft rejection and septic shock” (priority 1998, published 2002)
# What was measured:
# C57BL/6 spleen cells = assay: Mixed lymphocyte culture (MLR), alloantigen-specific response; assay type: cell-based, mouse; conditions: MLR treated on day 2 with LAC 8 μM for 3 h; restimulated after 8 days
# Description: The C57BL/6 spleen cells (H-2^b) were stimulated with mitomycin c-treated BALB/c spleen cells (H-2^d). On day 2 when most of the H-2^d-specific cells were activated, the mixed lymphocyte culture (MLR) was treated with lactacystin (LAC, 8 μM) for 3 h. After wash, the cells were put back in culture for additional 8 days, and then stimulated with either fresh BALB/c or C3H (H-2^k) spleen cells. […] The difference is more pronounced in day three of the culture.
# It is therefore an embodiment of this invention to use proteasome inhibitors, particularly lactacystin in transplantation and autoimmune diseases where certain undesirable activated T cells can be repressed or eliminated and the rest of the T cell population is generally unaffected by such inhibitors.
# [1] = aqueous solutions of high pH; cited from earlier work
# IL-2 = IL-2 production by PBMC after PHA stimulation; assay type: cell-based, human; conditions: 2 to 4 days after PHA; LAC 10 μM added at the beginning; data not shown
# Description: In the four systems of T and B cell activation and proliferation studied in the first section, the growth promoting activity of IL-2 is indirectly (for stimulation by PHA, anti-CD3, and anti-CD28 plus ionomycin), or directly (for SAC plus IL-2) involved. We then investigated the role of proteasome in IL-2Rα expression and IL-2 production. […] Under the experimental condition used, the viability of the LAC-treated cell was reasonable (>80% at 40 h) as described in the previous section as LAC was added only once initially. Moreover, no consistent change of IL-2 production in LAC-treated cells was a functional indication that the cell viability was reasonable and is not of a concern in interpreting the data. The results from this section indicate that IL-2Rα upregulation but not IL-2 production is proteasome-dependent, and the suppressed IL-2Rα expression likely contributes to LAC's inhibitory effect on T cells activation and proliferation. The Proteasome Activity is Critically Required Between G0 and G1/S Boundary in T Cells
# [2] = Activity of LAC in culture supernatants / medium over time; assay type: physicochemical; conditions: for inhibitory activity of LAC-conditioned media on proteasome activity of fresh Jurkat cells: LAC 6 μM
# Description: C. The activity of LAC in culture supernatants is short-lived LAC (6 μM) was added to Jurkat cell culture (0.5×10^6 cells/ml). The supernatants were harvested at 4 h, 6 h, 16 h and 24 h. These conditioned media were used to culture fresh Jurkat cells for 3 h. The cells were then harvested and assayed for the proteasome activity as described in FIG. 4B. Samples were in duplicates.
# We also investigated whether LAC was stable in the culture supernatant. LAC (6 μM) was added to Jurkat cells culture for 4 h, 6 h, 16 h or 24 h. The conditioned medium was harvested and used to treat fresh Jurkat cells for 3 h, and then the proteasome activity in the lysates of the fresh Jurkat cells was assayed. […] The loss of LAC activity in the 16 h and 24 h conditioned medium is unlikely due to trapping of LAC by proteasomes released by dead Jurkat cells, because LAC could rapidly enter the live cells and the equilibrium of the LAC concentration between both sides of the cytoplasmic membrane should be established very fast. Thus, the proteasomes whether released or not should not make a difference in terms of trapping LAC. Besides, we have also noticed that LAC kept in cell free culture medium at 4° C. would lose its activity within 24 h (data not shown).
# Tonsillar T cells [3] = assay: Electron microscopy of T cells; assay type: cell-based, human; conditions: LAC 10 μM, 24 h
# Description: A and B: Morphology of resting T cells treated with LAC. Tonsillar T cells were culture in the absence (A) or presence (B) of LAC ([…]) for 24 h, and the cells were examined by EM.
# C and D: Morphology of activated T cells treated with LAC. Tonsillar T cells were first activated with PHA (2 μg/ml) for 40 h. The cells were then cultured in the absence (C) or presence (D) of LAC (10 μM) for additional 24h, and were examined with EM.
# Electron microscopy was also employed to examine the mode of cell death induced by LAC. The resting T cells (cells cultured in medium, FIG. 3A), activated T cells (40 h after PHA activation, FIG. 3C), and Jurkat cells (FIG. 3E) were all healthy looking. […] The resting T cells treated with LAC (10 μM) for 24 h were still healthy (FIG. 3B).
# T cells and Jurkat cells were examined by electron microscopy as described by Tsao and Duguid (Tsao et al., 1987, Exp. Cell Res. 168:365).
# Tonsillar T cells [4] = assay: DNA fragmentation (DNA laddering) in T cells; assay type: cell-based, human
# Description: Tonsillar T cells (A, B, and D) and Jurkat cells (C and E) were treated with LAC (10 μM for T cells and 6 μM for Jurkat cells). LAC was added at the beginning of the culture or 40 h after T cell activation as indicated. The cells were harvested at the time points as shown. They were evaluated for their viability with trypan blue exclusion (A, B, and C), and for their mode of cell death according to DNA fragmentation (D and E).
# We next employed DNA laddering to study the mode of cell death caused by LAC, and the result of this experiment also reflected the degree of cell death after different treatments. […] After 24 h of LAC treatment, the ladders became less discrete, and this probably reflected further DNA breakdown.
# The assay was performed according to a protocol described by Liu et al (Liu et al., 1997, Cell. 89:175) with some modifications. Briefly, 2-6 million cells were re-suspended in 50 μl PBS followed by 300 μl lysis buffer (100 mM Tris-HCl, pH 8.0, 5 mM EDTA, 0.2 M NaCl. 0.2% w/v SDS, and 0.2 mg/ml proteinase K). After overnight incubation at 37° C., 350 μl of 3M NaCl was added to the mixture and cell debris was removed by centrifugation at 13000 g for 20 min at room temperature. DNA in the supernatant was precipitated with an equal volume of 100% ethanol. […]
# Jurkat cells = assay: Proliferation of Jurkat cells; assay type: cell-based; conditions: data not shown
structure (smiles),measurement,setting,value
"CC(=O)N[C@@H](CSC(=O)[C@]1([C@@H](O)C(C)C)NC(=O)[C@H](C)[C@@H]1O)C(=O)O [LAC, lactacystin]",response to restimulation with BALB/c cells,C57BL/6 spleen cells,failed to respond to the BALB/c cells
same,response to restimulation with third party C3H cells,C57BL/6 spleen cells,respond well to third party C3H
same,stability in aqueous solutions,[1],unstable
same,IL-2 production,IL-2,no consistent difference was found
same,inhibitory activity of LAC-conditioned media on proteasome activity of fresh Jurkat cells,[2]; media conditioned 16 h and 24 h,lost their inhibitory effect
same,inhibitory activity of LAC-conditioned media on proteasome activity of fresh Jurkat cells,[2]; media conditioned up to 6 h,could still actively inhibit the enzymatic activity
same,time in which LAC loses its activity,"[2]; cell free culture medium at 4° C., data not shown",≤ 24 h
same,nuclear condensation by electron microscopy,Tonsillar T cells [3]; activated T cells (40 h after PHA),frequently observed
same,morphology by electron microscopy,Tonsillar T cells [3]; resting T cells,still healthy
same,DNA breakdown (DNA laddering),"Tonsillar T cells [4]; activated T cells (40 h post PHA), LAC for additional 9 h",clear DNA ladders
same,DNA breakdown (DNA laddering),"Tonsillar T cells [4]; resting T cells, 10 μM LAC, 24 h",no apparent DNA breakdown
same,proliferation of Jurkat cells,Jurkat cells,potently inhibited
